Values quoted from earlier work as cited in patent US20200289459A1, “LIQUID DOSAGE FORMS, METHODS OF MAKING AND USE” (CANOPY GROWTH CORPORATION, priority 2017, published 2020).

Columns and labels:
[1] = system: locomotor suppression, catalepsy, hypothermia and analgesia; conditions: up to 80 mg/kg
5-HT1A receptor = target: T1, 5-HT1A receptor (Homo sapiens, UniProt P08908)
T1 sequence (P08908 1-422): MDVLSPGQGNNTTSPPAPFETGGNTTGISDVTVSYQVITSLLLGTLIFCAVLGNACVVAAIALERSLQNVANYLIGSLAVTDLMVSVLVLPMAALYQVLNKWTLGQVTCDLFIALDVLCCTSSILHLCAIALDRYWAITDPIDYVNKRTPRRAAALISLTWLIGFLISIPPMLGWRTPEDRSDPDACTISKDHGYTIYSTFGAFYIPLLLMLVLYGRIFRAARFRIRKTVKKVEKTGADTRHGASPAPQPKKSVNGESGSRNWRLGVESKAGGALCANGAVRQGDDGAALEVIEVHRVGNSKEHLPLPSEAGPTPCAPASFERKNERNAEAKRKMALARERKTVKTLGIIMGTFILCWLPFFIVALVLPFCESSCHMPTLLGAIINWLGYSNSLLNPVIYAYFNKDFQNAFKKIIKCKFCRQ

CB1 receptor = CB1 receptor (Homo sapiens, UniProt P21554)
CB2 receptor = CB2 receptor (Homo sapiens, UniProt P34972)
CB2 receptor, sequence (P34972 whole entry): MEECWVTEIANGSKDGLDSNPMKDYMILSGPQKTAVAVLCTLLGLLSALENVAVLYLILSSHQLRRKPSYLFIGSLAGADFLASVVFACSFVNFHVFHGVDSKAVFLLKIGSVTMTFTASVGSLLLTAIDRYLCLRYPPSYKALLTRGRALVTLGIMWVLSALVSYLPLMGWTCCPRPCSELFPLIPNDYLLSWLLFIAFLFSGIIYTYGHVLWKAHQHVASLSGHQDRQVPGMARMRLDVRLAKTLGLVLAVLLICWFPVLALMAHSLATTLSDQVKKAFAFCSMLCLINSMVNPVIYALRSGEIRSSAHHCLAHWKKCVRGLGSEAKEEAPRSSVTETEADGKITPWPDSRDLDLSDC

CB1 receptor, sequence (P21554 whole entry): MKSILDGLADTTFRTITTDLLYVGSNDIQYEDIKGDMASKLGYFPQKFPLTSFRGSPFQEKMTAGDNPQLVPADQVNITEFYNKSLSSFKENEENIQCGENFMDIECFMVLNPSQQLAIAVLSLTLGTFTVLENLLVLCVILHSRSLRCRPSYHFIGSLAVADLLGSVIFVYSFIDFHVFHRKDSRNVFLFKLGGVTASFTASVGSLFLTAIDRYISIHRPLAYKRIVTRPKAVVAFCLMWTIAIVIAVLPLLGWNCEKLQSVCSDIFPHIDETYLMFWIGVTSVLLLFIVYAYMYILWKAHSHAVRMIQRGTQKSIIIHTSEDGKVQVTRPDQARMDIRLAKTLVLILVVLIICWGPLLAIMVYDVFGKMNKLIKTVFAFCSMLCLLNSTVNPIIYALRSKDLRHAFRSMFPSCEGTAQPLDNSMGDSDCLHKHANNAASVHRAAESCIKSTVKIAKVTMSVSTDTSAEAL

CCCCCc1cc(O)c(C/C=C(\C)CCC=C(C)C)c(O)c1 [CBG, Cannabigerol]
effect in the mouse tetrad test of cannabimimetic activity [1]: without effect
affinity as α2-adrenergic receptor agonist (α2-adrenergic receptor): high affinity
affinity as 5-HT1A receptor antagonist (5-HT1A receptor): moderate affinity
affinity as CB1 receptor antagonist (CB1 receptor): low affinity
binding to the CB2 receptor (CB2 receptor): antagonist
